From ChEMBL document CHEMBL5113483, “Design and synthesis of NAD(P)H: Quinone oxidoreductase (NQO1)-activated prodrugs of 23-hydroxybetulinic acid with enhanced antitumor properties” (Eur J Med Chem, 2022)

What was measured:
[1] = tested on: HT-29; assay: Induction of cell cycle arrest in human HT-29 cells assessed as accumulation of cells at G1 phase at 4 uM incubated for 48 hrs by RNaeA/propidium iodide based flow cytometry analysis (reference value: 62.98 %); assay type: functional
[2] = tested on: HT-29; assay: Induction of apoptosis in human HT-29 cells assessed as viable cells at 2 uM incubated for 48 hrs by Annexin V-FITC/PI staining based flow cytometry analysis (Rvb= 96.54%); assay type: functional; conditions: read-out: Activity
[3] = tested on: HT-29; assay: Induction of cell cycle arrest in human HT-29 cells assessed as accumulation of cells at G2 phase at 4 uM incubated for 48 hrs by RNaeA/propidium iodide based flow cytometry analysis (reference value: 13.96 %); assay type: functional
[4] = tested on: HT-29; assay: Induction of apoptosis in human HT-29 cells assessed as downregulation of Bcl-xl protein expression incubated for 48 hrs by Western blot analysis; assay type: functional, cell-based; conditions: dose 1-4 µM, DDE = dose-dependent effect
[5] = tested on: HT-29; assay: Antitumor activity against human HT-29 cells overexpressing NQO-1 xenografted in ICR mouse assessed as reduction in tumor weight at 15 mg/kg, ip administered every day for 21 days and measured every 2 days relative to control; assay type: functional; set-up: scale not given: the % may be the effect or the level left; conditions: time 21 day
[6] = tested on: HT-29; assay: Induction of mitochondrial membrane potential loss in human HT-29 cells assessed as healthy cells at 4 uM incubated for 48 hrs by JC-1 staining based flow cytometry analysis (reference value: 93.4 %); assay type: functional
[7] = Selectivity index, ratio of IC50 for cytotoxicity against human HFL1 cells to IC50 for antiproliferative activity against human HT-29 cells overexpressing NQO1; assay type: toxicity, cell-based; conditions: HFL1 cells versus HT-29 cells overexpressing NQO1, read-out: Ratio IC50
[8] = tested on: HT-29; assay: Induction of cell cycle arrest in human HT-29 cells assessed as accumulation of cells at S phase at 4 uM incubated for 48 hrs by RNaeA/propidium iodide based flow cytometry analysis (reference value: 23.06 %); assay type: functional
[9] = Selectivity index, ratio of IC50 for antiproliferative activity against human HT-29 cells overexpressing NQO1 in presence of dicoumarol to antiproliferative activity against human HT-29 cells overexpressing NQO1; assay type: functional
[10] = tested on: A549; assay: Antiproliferative activity against human A549 cells overexpressing NQO1 assessed as inhibition of cell growth incubated for 72 hrs by MTT assay; assay type: functional, cell-based; conditions: A549, 72 h
[11] = tested on: HT-29; assay: Induction of apoptosis in human HT-29 cells assessed as upregulation of cytochrome C protein expression incubated for 48 hrs by Western blot analysis; assay type: functional, cell-based; conditions: dose 1-4 µM, DDE = dose-dependent effect
[12] = tested on: NCI-H596; assay: Antiproliferative activity against NQO1-deficient human NCI-H596 cells assessed as inhibition of cell growth incubated for 72 hrs by MTT assay; assay type: functional, cell-based; conditions: NCI-H596, 72 h
[13] = tested on: HT-29; assay: Induction of cell cycle arrest in human HT-29 cells assessed as accumulation of cells at G1 phase at 2 uM incubated for 48 hrs by RNaeA/propidium iodide based flow cytometry analysis (reference value: 62.98 %); assay type: functional
[14] = tested on: HT-29; assay: Induction of apoptosis in human HT-29 cells assessed as dead cells at 1 uM incubated for 48 hrs by Annexin V-FITC/PI staining based flow cytometry analysis (Rvb= 0.01%); assay type: functional
[15] = tested on: HT-29; assay: Induction of cell cycle arrest in human HT-29 cells assessed as accumulation of cells at G2 phase at 1 uM incubated for 48 hrs by RNaeA/propidium iodide based flow cytometry analysis (reference value: 13.96 %); assay type: functional
[16] = Toxicity in […] xenografted with human HT-29 cells overexpressing NQO-1 assessed as reduction in body weight at 30 mg/kg, ip administered for 21 days and measured every 2 days; assay type: organism-based; conditions: in vivo, 504 h, time 21 day
[17] = Cytotoxicity against human HFL1 cells assessed as inhibition of cell growth incubated for 72 hrs by MTT assay; assay type: toxicity, cell-based
[18] = tested on: HT-29; assay: Antiproliferative activity against human HT-29 cells overexpressing NQO1 assessed as inhibition of cell growth incubated for 72 hrs by MTT assay; assay type: functional, cell-based; conditions: HT-29, 72 h
[19] = tested on: HT-29; assay: Induction of apoptosis in human HT-29 cells assessed as upregulation of caspase-3 protein expression incubated for 48 hrs by Western blot analysis; assay type: functional, cell-based; conditions: dose 1-4 µM, DDE = dose-dependent effect
[20] = tested on: HT-29; assay: Induction of mitochondrial membrane potential loss in human HT-29 cells assessed as healthy cells at 2 uM incubated for 48 hrs by JC-1 staining based flow cytometry analysis (reference value: 93.4 %); assay type: functional
[21] = tested on: HT-29; assay: Induction of cell cycle arrest in human HT-29 cells assessed as accumulation of cells at G1 phase at 1 uM incubated for 48 hrs by RNaeA/propidium iodide based flow cytometry analysis (reference value: 62.98 %); assay type: functional
[22] = tested on: HT-29; assay: Induction of apoptosis in human HT-29 cells assessed as viable cells at 4 uM incubated for 48 hrs by Annexin V-FITC/PI staining based flow cytometry analysis (Rvb= 96.54%); assay type: functional; conditions: read-out: Activity
[23] = tested on: HT-29; assay: Induction of mitochondrial membrane potential loss in human HT-29 cells assessed as JC-1 monomer formation by measuring increase in green intensity at 2 uM incubated for 48 hrs by JC-1 staining based flow cytometry analysis (reference value: 6.54 %); assay type: functional
[24] = tested on: HT-29; assay: Induction of apoptosis in human HT-29 cells assessed as late apoptotic cells at 1 uM incubated for 48 hrs by Annexin V-FITC/PI staining based flow cytometry analysis (Rvb= 1.04%); assay type: functional
[25] = Stability of compound in TRIS buffer at pH 7.4 assessed as compound remaining measured after 60 hrs by HPLC analysis; assay type: physicochemical; conditions: read-out: Stability
[26] = tested on: HT-29; assay: Antiproliferative activity against human HT-29 cells overexpressing NQO1 assessed as inhibition of cell growth preincubated with NQO1 inhibitor, dicoumarol for 30 mins followed by compound addition and measured after 72 hrs by MTT assay; assay type: functional, cell-based
[27] = tested on: HT-29; assay: Induction of cell cycle arrest in human HT-29 cells assessed as accumulation of cells at S phase at 1 uM incubated for 48 hrs by RNaeA/propidium iodide based flow cytometry analysis (reference value: 23.06 %); assay type: functional
[28] = tested on: HT-29; assay: Induction of apoptosis in human HT-29 cells assessed as dead cells at 4 uM incubated for 48 hrs by Annexin V-FITC/PI staining based flow cytometry analysis (Rvb= 0.01%); assay type: functional
[29] = target: NAD(P)H dehydrogenase [quinone] 1 (Homo sapiens) (UniProt P15559); assay: Substrate activity at lyophilized human NQO1 assessed as compound decomposition measured after 6 hrs by HPLC analysis
[30] = tested on: HT-29; assay: Induction of apoptosis in human HT-29 cells assessed as late apoptotic cells at 4 uM incubated for 48 hrs by Annexin V-FITC/PI staining based flow cytometry analysis (Rvb= 1.04%); assay type: functional
[31] = target: NAD(P)H dehydrogenase [quinone] 1 (Homo sapiens) (UniProt P15559); assay: Substrate activity at lyophilized human NQO1 assessed as compound decomposition measured after 60 hrs by HPLC analysis
[32] = tested on: HT-29; assay: Induction of apoptosis in human HT-29 cells assessed as early apoptotic cells at 2 uM incubated for 48 hrs by Annexin V-FITC/PI staining based flow cytometry analysis (Rvb= 2.41%); assay type: functional
[33] = tested on: HT-29; assay: Induction of oxidative stress in human HT-29 cells assessed as increase in intracellular ROS generation incubated for 48 hrs by DCF-DA fluorescent probe based flow cytometry analysis; assay type: functional, cell-based; conditions: dose 1-4 µM, DDE = dose-dependent effect
[34] = tested on: HT-29; assay: Induction of apoptosis in human HT-29 cells assessed as late apoptotic cells at 2 uM incubated for 48 hrs by Annexin V-FITC/PI staining based flow cytometry analysis (Rvb= 1.04%); assay type: functional

Chain of NAD(P)H dehydrogenase [quinone] 1 (Homo sapiens) (P15559 whole entry): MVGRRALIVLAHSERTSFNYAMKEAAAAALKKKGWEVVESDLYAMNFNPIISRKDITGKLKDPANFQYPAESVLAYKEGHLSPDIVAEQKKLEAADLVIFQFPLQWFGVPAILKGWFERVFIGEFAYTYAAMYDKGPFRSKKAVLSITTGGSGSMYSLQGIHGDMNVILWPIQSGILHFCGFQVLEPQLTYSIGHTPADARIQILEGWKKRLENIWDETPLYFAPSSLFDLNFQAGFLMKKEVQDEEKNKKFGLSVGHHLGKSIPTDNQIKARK

## C=C(C)[C@@H]1CC[C@]2(C(=O)OCCOC(=O)CCC(=O)OCc3cn(C)c4c3C(=O)C(OC)=CC4=O)CC[C@]3(C)[C@H](CC[C@@H]4[C@@]5(C)CC[C@H](O)[C@@](C)(CO)[C@@H]5CC[C@]43C)[C@@H]12
[1]
  Activity: 39.61%
[2]
  viability at 2 µM: 55.7%
[3]
  Activity: 32.73%
[4]
  Activity: Dde
[5]
  Activity: 55.89%
[6]
  Activity: 55.52%
[7]
  selectivity ratio: 4.16
[8]
  Activity: 27.66%
[9]
  Ratio IC50: 4.9
[10]
  IC50: 2.36 µM
[11]
  Activity: Dde
[12]
  IC50: 7.78 µM
[13]
  Activity: 52.73%
[14]
  Activity: 2.16%
[15]
  Activity: 20.54%
[16]
  Activity: Non-Toxic
[17]
  IC50 at 72 h: 6.45 µM
[18]
  IC50: 1.87 µM
[19]
  Activity: Dde
[20]
  Activity: 66.47%
[21]
  Activity: 56.44%
[22]
  viability at 4 µM: 38.4%
[23]
  Activity: 33.41%
[24]
  Activity: 9.81%
[25]
  remaining at 60 h: 80%
[26]
  IC50: 9.22 µM
[27]
  Activity: 23.02%
[28]
  Activity: 6.74%
[29]
  Activity: 50%
[30]
  Activity: 22.58%
[31]
  Activity: 100%
[32]
  Activity: 22.49%
[33]
  Activity: Dde
[34]
  Activity: 16.77%
